PubChem BioAssay (NCI)
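Interpolation was linear, between the two tested concentrations surrounding the appropriate level; five concentrations were tested over 48 hours in 96-well plates. TGI is the concentration that stops growth completely.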

How the values were obtained:
Assay in all cases: growth of human tumour cells (NCI), 48 h
HT29 colon = test system: HT29 colon
TK-10 renal = test system: TK-10 renal
M14 melanoma = test system: M14 melanoma
SK-MEL-2 melanoma = test system: SK-MEL-2 melanoma
IGROV1 ovarian = test system: IGROV1 ovarian
U251 CNS = test system: U251 CNS
MCF7 breast = test system: MCF7 breast
OVCAR-3 ovarian = test system: OVCAR-3 ovarian
SN12C renal = test system: SN12C renal
NCI/ADR-RES ovarian = test system: NCI/ADR-RES ovarian

| SMILES | TGI (HT29 colon) | TGI (TK-10 renal) | TGI (M14 melanoma) | TGI (SK-MEL-2 melanoma) | TGI (IGROV1 ovarian) | TGI (U251 CNS) | TGI (MCF7 breast) | TGI (OVCAR-3 ovarian) | TGI (SN12C renal) | TGI (NCI/ADR-RES ovarian) |
| --- | --- | --- | --- | --- | --- | --- | --- | --- | --- | --- |
| N#Cc1ccc(Oc2nc3ccc(C(F)(F)F)cc3nc2-c2ccccc2)cc1 | 34.5 µM | 33.6 µM | 29.7 µM | 36.9 µM | 41.3 µM | 30.9 µM | 44.1 µM | 44.8 µM | 40.9 µM | 37.1 µM |
| Clc1c(C(Cl)(Cl)Cl)nsc1N1CCCCC1 | 38.3 µM | > 100 µM | 56.4 µM |  | > 100 µM | > 100 µM | 69.3 µM | 56.9 µM | 80.9 µM |  |
| CC(=O)Oc1ccc(/C=C/C(=O)O[C@H]2CCCC[C@@H]2OC(=O)/C=C/c2ccc(OC(C)=O)c(OC(C)=O)c2)cc1OC(C)=O | > 100 µM | 63.2 µM | 25.6 µM | 53.1 µM | 64.9 µM | > 100 µM | 42.9 µM | 95.7 µM | 29.8 µM | > 100 µM |
| Cn1c(=O)c2c(nc(Nc3ccc(Cl)cc3)n3c(=O)n(-c4ccccc4)c(=O)n23)n(C)c1=O | > 100 µM | > 100 µM | > 100 µM | > 100 µM | > 100 µM | > 100 µM | > 100 µM | > 100 µM | > 100 µM | > 100 µM |
| COc1cc2c(cc1OC)-c1cc3cc(OC)c(OC)cc3c(=O)n1CC2 | > 100 µM | > 100 µM | > 100 µM | > 72.9 µM | > 62.3 µM | > 100 µM | > 100 µM | > 100 µM | > 100 µM | > 80.1 µM |
| CC(C)OC(=O)[C@@H](O)[C@H](CO)C1=CC([Si](C)(C)c2ccccc2)=CON1 | > 100 µM | > 100 µM | > 100 µM | > 100 µM |  | > 100 µM | > 100 µM | > 100 µM |  | > 100 µM |
| CC(Cc1ccccc1)NC1=NCCO1 (configuration not stated) | 40.3 µM |  |  | > 100 µM | > 100 µM | 58 µM | > 100 µM |  | 53.3 µM |  |
| C=C(C(=O)OC)c1cc2ccccc2n1S(=O)(=O)c1ccccc1 | 24.9 µM | 3.91 µM | 9.55 µM | 10.5 µM | 4.21 µM | 5.12 µM | 8.11 µM | 11.4 µM | 8.18 µM | 18.7 µM |
| CCOc1ccc2nc(NC(NC(=O)c3cccnc3)(C(F)(F)F)C(F)(F)F)sc2c1 | 30.5 µM | > 100 µM | > 100 µM | > 100 µM |  | > 100 µM | 91.4 µM | > 100 µM | > 100 µM | 93.3 µM |
| C=C1C(=O)O[C@@H]2[C@H](O)[C@@H](C)[C@@H]3C=CC(=O)[C@@]3(C)[C@H](OC(=O)C=C(C)C)[C@H]12 | 3.82 µM |  |  | 2.84 µM | 4.48 µM | 3.5 µM | 1.81 µM | 2.15 µM | 2.27 µM | 6.42 µM |
| CCN(CC)C(=O)N1CN(c2ccccc2)C2(CCN(CCCSc3ccc(F)cc3)CC2)C1=O | 13 µM | 31.5 µM | 15.3 µM | 21 µM |  | 26.8 µM | > 100 µM | 18.6 µM | 39.8 µM | 83.4 µM |
| O=c1c2ccccc2[nH]c2cc(O)cc(O)c12 | > 100 µM | > 100 µM | > 100 µM | > 100 µM | > 100 µM | > 100 µM |  | > 100 µM | > 100 µM |  |
| CC(=O)/C=C(\O)c1[nH]c(C(=O)O)cc1C1CCN(Cc2ccccc2)C1=O (configuration not stated) | 89 µM | > 100 µM | 29.6 µM | 54.9 µM | 61.5 µM | > 100 µM | 65.7 µM | 54.9 µM |  | 28.9 µM |
| CCN(CC)CCCOc1cc2c(cc1OC)C(=O)N1CCC[C@H]1C=N2 | 39.5 µM | > 100 µM | > 100 µM | > 100 µM |  | > 100 µM | > 100 µM | 50 µM | > 100 µM | > 100 µM |
| C(=C\c1cc(-c2ccc3ccccc3n2)nc2ccc3ccccc3c12)/c1ccc2ccccc2n1 | > 100 µM | > 100 µM | > 100 µM |  | > 100 µM | > 100 µM | > 100 µM | > 100 µM | > 100 µM | > 100 µM |
| CCOC(=O)CSc1[nH]c(NC(=S)Nc2ccccc2)c(C(N)=O)c1C(N)=O | > 10 µM | > 10 µM | > 10 µM |  | > 10 µM |  | > 10 µM |  | > 10 µM |  |
| C=CCN(c1cc(OC)c2[nH]cc(C)c2c1[N+](=O)[O-])S(C)(=O)=O |  | > 100 µM | > 100 µM | > 100 µM | > 100 µM | > 100 µM | > 100 µM | > 100 µM | > 100 µM | > 100 µM |
| O=C(OCc1ccccc1)N1CCN(C(=O)OCc2ccccc2)CCN(C(=O)OCc2ccccc2)CCN(C(=O)OCc2ccccc2)CCN(C(=O)OCc2ccccc2)CC1 |  | > 100 µM | > 100 µM | > 100 µM |  | > 100 µM | > 100 µM | > 100 µM | > 100 µM | > 100 µM |
| COc1ccc(-c2cc(-c3cc(F)c(Cl)cc3Cl)on2)cc1OC | > 100 µM | > 100 µM | > 100 µM | 97.7 µM | > 100 µM | > 100 µM |  | > 100 µM | > 100 µM | > 100 µM |
| O=C1C(NCCN2CCOCC2)=C(Cl)C(=O)c2ncccc21 | 2.95 µM | 2.78 µM | 1.73 µM | 1.11 µM | 2.3 µM | 2.23 µM | 1.14 µM | 5.48 µM | 2.74 µM |  |
| O=C1CCCC2=C1CC1=C(CCCC1=O)N2c1ccccc1 | > 100 µM | > 100 µM | > 100 µM |  | > 100 µM | > 100 µM | > 100 µM | > 100 µM | > 100 µM | > 100 µM |
| O=C(N/N=C\c1ccccc1)Nc1cccc2ccccc12 | 69.9 µM | > 100 µM | 49.1 µM | 95.3 µM | > 100 µM | > 100 µM |  | > 100 µM | 45.9 µM | > 100 µM |
